Data on 18 compounds can be found in paper PMC9105583, “Stereoselective Synthesis and Anticancer Activity of 2,6-Disubstituted trans-3-Methylidenetetrahydropyran-4-ones” (Materials, 2022).

One data set concerns HL-60 cells. Nature of the data set: MTT assay, metabolic activity (cytotoxicity). Format: cell-based, human. The settings on record: for IC50: 48 h incubation, MTT, mean ± SEM, read-out: IC50 HL-60. How it is done: (§1) Metabolic activity by MTT assay
(§2) The MTT (3-([…])-2,5-diphenyl tetrazolium bromide) assay was performed to assess the cytotoxicity of the investigated compounds. Briefly, HL-60, MCF-7 and HUVEC cells were seeded in 24-well plates at density of 8 × 10^4/mL. After 24 h incubation, cells were treated with various concentrations of the compounds and incubated for another 24 h or 48 h. Then, the cells were incubated with MTT solution (100 µL; 5 mg/mL in PBS) for 1.5 h and centrifuged. The formazan product was dissolved in DMSO, and the absorption was measured using FlexStation 3 Multi-Mode Microplate Reader (Molecular Devices, LLC, San Jose, CA, USA) at 560 nm. Assays were performed twice in triplicate for each analog.
(§3) The cytotoxic activity of the obtained methylidenetetrahydropyran-4-ones was investigated in two cancer cell lines, human promyelocytic leukemia (HL-60) and breast cancer adenocarcinoma (MCF-7), and in healthy umbilical vein endothelial cells (HUVEC), for comparison. An anticancer drug, carboplatin, was used as a reference compound. Metabolic activity of the cells was assessed after 48 h incubation with various concentrations of the analogs (Table 6). Purity of all final compounds was determined on the basis of their ^1H NMR spectra (signal-to-noise ratio and presence of unidentified signals) and was at least 98%, in most cases even over 99%.
(Tetrazolium assays rely on reduction of a dye to a coloured formazan, in cell work by metabolically active cells.)

The subject of another data set is MCF-7 cells. The data set is described as follows: MTT assay, metabolic activity (cytotoxicity). In kind it is cell-based, human. The settings on record: mean ± SEM. Here is the method: as §1, §2, §3
Another data set concerns HUVEC cells. Nature of the data set: MTT assay, metabolic activity (cytotoxicity), normal cell line. In kind it is cell-based, human. To be noted: 48 h incubation, mean ± SEM. How it is done: as §1, §2, §3
Data set [1] has as its system Ehrlich ascites carcinoma. More on the design: method as in PMID 3693116. The settings on record: cited from earlier work.
Data set [2] concerns human cancer cell lines, including lymphoid leukemia L1210 and leukemia P388. More on the design: method as in PMID 3693116. To be noted: cited from earlier work.
The test system of data set [3] is HL-60 human leukemia cells. Set-up: method as in PMID 32019209. To be noted: cited from earlier work.
Data set [4] can be described thus: Stability of the compound at room temperature. Format: physicochemical. Here is the method:
Next, we made an attempt to transform the obtained 2-substituted-5-diethoxyphosphoryltetrahydropyran-4-ones 14a-d into target 2-substituted-5-methylidenetetrahydropyran-4-ones 15a-d, using Horner–Wadsworth–Emmons olefination. The reaction was carried out with 2 equivalents of K2CO3, 10 equivalents of formalin, THF as a solvent and room temperature for 3 h. Unfortunately, the obtained 3-methylidenetetrahydropyran-4-ones 15a-c,e, turned out to be unstable at room temperature and decomposed during column chromatography.

For data set [5], the system named is mouse lymphocytic leukemia cells (L1210). More on the design: method as in PMID 18078344. The settings on record: cited from earlier work.
Where [6] appears, read: Homo sapiens, MCF7, 48 h incubation.

Like-named read-outs stand apart in the source and are kept apart here. Bounds are passed on as bounds.

As for `C=C1C(=O)C[C@H](CC)O[C@H]1C(C)C` (relative stereo) [Analog 13a, Trans-6-ethyl-2-isopropyl-3-methylidenetetrahydro-4H-pyran-4-one], the IC50 came out at 21.3 ± 1 µM in the data set on HL-60 cells (Homo sapiens, HL-60, 48 h) and 20.4 ± 0.35 µM in the data set on MCF-7 cells (setting [6]).
Regarding `C=C1C(=O)C[C@H](CC)O[C@H]1CCCC` (relative stereo) [Analog 13b, Trans-2-butyl-6-ethyl-3-methylidenetetrahydro-4H-pyran-4-one], the IC50 in the data set on HL-60 cells (Homo sapiens, HL-60, 48 h) came to 39.15 ± 0.15 µM; with MCF-7 cells (setting [6]) it was 106.5 ± 0.5 µM.
In the same order, the values of `C=C1C(=O)C[C@H](CC)O[C@H]1c1ccccc1` (relative stereo) [Analog 13c, Trans-6-ethyl-3-methylidene-2-phenyltetrahydro-4H-pyran-4-one] are 11.8 ± 0.15 µM and 36 ± 0.41 µM.
Consider `C=C1C(=O)C[C@H](C(C)C)O[C@H]1CCCC` (relative stereo) [Analog 13e, Trans-2-butyl-6-isopropyl-3-methylidenetetrahydro-4H-pyran-4-one], for which the IC50 is 78.8 ± 5.25 µM in the data set on HL-60 cells (Homo sapiens, HL-60, 48 h) and over 150 µM with MCF-7 cells (setting [6]).
For `C=C1C(=O)C[C@H](C(C)C)O[C@H]1c1ccccc1` (relative stereo) [Analog 13f, Trans-6-isopropyl-3-methylidene-2-phenyltetrahydro-4H-pyran-4-one], the IC50 in the data set with HUVEC cells (Homo sapiens, HUVEC) stood at 11.9 ± 2.32 µM; in the data set with HL-60 cells (Homo sapiens, HL-60, 48 h), 8.45 ± 0.05 µM; in the data set on MCF-7 cells (setting [6]) it was 69.7 ± 2.16 µM.
In the case of `C=C1C(=O)C[C@H](c2ccccc2)O[C@H]1CCCC` (relative stereo) [Analog 13h, Trans-2-buthyl-3-methylidene-6-phenyltetrahydro-4H-pyran-4-one], the IC50 in the data set on HL-60 cells is 134 ± 1 µM; in the data set on MCF-7 cells (48 h incubation), over 150 µM.
For `C=C1C(=O)C[C@H](c2ccccc2)O[C@H]1c1ccccc1` (relative stereo) [Analog 13i, Trans-3-methylidene-2,6-diphenyltetrahydro-4H-pyran-4-one], the 50% inhibitory concentration (IC50) in the data set on HL-60 cells (Homo sapiens, HL-60, 48 h) was 36 ± 1.41 µM; with MCF-7 cells (setting [6]) it was over 200 µM.
Turning to `C=C1C(=O)C[C@H](c2ccc(OC)cc2)O[C@H]1C(C)C` (relative stereo) [Analog 13j, Trans-2-isopropyl-6-(4-methoxyphenyl)-3-methylidenetetrahydro-4H-pyran-4-one], the IC50 with HUVEC cells (Homo sapiens, HUVEC) was 4.25 ± 0.05 µM; in the data set on HL-60 cells, 3.75 ± 0.07 µM; in the data set on HL-60 cells (Homo sapiens, HL-60, 48 h) it was under 4 µM; in the data set with MCF-7 cells (setting [6]), 9.11 ± 0.02 µM.
Consider `C=C1C(=O)C[C@H](c2ccc(OC)cc2)O[C@H]1CCCC` (relative stereo) [Analog 13k, Trans-2-butyl-6-(4-methoxyphenyl)-3-methylidenetetrahydro-4H-pyran-4-one], for which the concentration for half-maximal inhibition (IC50) with HL-60 cells (Homo sapiens, HL-60, 48 h) is over 100 µM; in the data set on MCF-7 cells (setting [6]), over 100 µM.
For the compound `C=C1C(=O)C[C@H](c2ccc(OC)cc2)O[C@H]1c1ccccc1` (relative stereo) [Analog 13l, Trans-6-(4-methoxyphenyl)-3-methylidene-2-phenyltetrahydro-4H-pyran-4-one], the IC50 in the data set with HL-60 cells (Homo sapiens, HL-60, 48 h) is 25 ± 0.94 µM; with MCF-7 cells (setting [6]) it was 203 ± 56 µM.
Turning to `C=C1C(=O)C[C@H]([c-]2cccc2)O[C@H]1C(C)C.[Fe+2].c1cc[cH-]c1` (relative stereo) [Analog 13m, Trans-6-ferrocenyl-2-isopropyl-3-methylidenetetrahydro-4H-pyran-4-one], the 50% inhibitory concentration (IC50) in the data set with HL-60 cells is 3.87 ± 0.16 µM; with MCF-7 cells (48 h incubation), 5.73 ± 0.36 µM.
In the same order, the values of `C=C1C(=O)C[C@H]([c-]2cccc2)O[C@H]1c1ccccc1.[Fe+2].c1cc[cH-]c1` (relative stereo) [Analog 13o, Trans-6-ferrocenyl-3-methylidene-2-phenyltetrahydro-4H-pyran-4-one] are over 100 µM and over 100 µM.
In the case of `C=C1C(=O)[C@]2(C)C(=O)O[C@@]34C[C@H](C)C(C(=O)O)=C[C@@H]3CCC[C@@H](C)C[C@@H](C)[C@H]1OC24` (single isomer, unassigned; (+)) [(+)-okilactomycin], the “in vivo activity” value in data set [1] is “in vivo activity”. For the same compound, the “in vitro cytotoxicity” value in data set [2] was “exhibits in vitro cytotoxicity”.
On to `C=C1C(=O)CC(C)(C)OC1C(C)C` (stereo not drawn) [6-isopropyl-2,2-dimethyl-5-methylidenetetrahydropyran-4-one], for which, in data set [3], the “apoptosis” value is recorded as “induced apoptosis”, the “cell cycle” value is recorded as “arrest of the cell cycle in the G2/M phase” and the “cytotoxic activity” value is reported as “very high cytotoxic activity”.
For the compound `C=C1COC(c2ccc(OC)cc2)CC1=O` (stereo not drawn) [Analog 15d, 2-(4-Methoxyphenyl)-5-methylidenetetrahydro-4H-pyran-4-one], the “stable for a prolonged period of time” value in data set [4] is listed as “at least 7 days”. For the same compound, the “cytotoxic activity” value with HL-60 cells (HL-60 and MCF-7, 48 h) was “practically inactive”. Besides, the IC50 was 163 ± 7.07 µM in the data set on HL-60 cells (Homo sapiens, HL-60, 48 h) and over 200 µM with MCF-7 cells (setting [6]).
For `N.N.O=C([O-])C1(C(=O)[O-])CCC1.[Pt+2]` [Carboplatin, carboplatin, reference compound], the 50% inhibitory concentration (IC50) in the data set on HUVEC cells is 5.35 ± 0.05 µM; with HL-60 cells it was 2.53 ± 0.2 µM; with MCF-7 cells (48 h incubation), 3.76 ± 0.35 µM.
Turning to `C[C@H]1CCC/C=C\[C@H]2C=C[C@H](O)[C@H](CC(=O)O1)O2` [aspergillide C], in data set [5], the “cytotoxic activity” value is reported as “showed cytotoxic activity”.
On to “Trans-2-buthyl-6-ferrocenyl-3-methylidenetetrahydro-4H-pyran-4-one [Analog 13n]”, for which the half-maximal inhibitory concentration (IC50) with HL-60 cells was 62.6 ± 0.61 µM; in the data set with MCF-7 cells (48 h incubation), over 100 µM.

By IC50 is commonly meant the concentration needed to halve the response being measured.
